Source: article PMC12973313 (Chemical Science, 2026)
Read-outs that look alike come from different tables or passages of the source.

What was measured:
[1] = system: A2780 CisR cisplatin resistant ovarian cancer cells; experiment: GI50 determination, SRB assay; format: cell-based, human; conditions: 96 hours; read-out: Mean GI50 (μM) A2780 CisR SRB Assays
Protocol: (§1) GI50 determination assays
(§2) Cell culture: The RPE-1 retinal pigment epithelial, A2780 human ovarian carcinoma, and A2780 CisR cisplatin resistant human ovarian carcinoma cell lines were donated with thanks from the Institute of Cancer Research. The A2780 and A2780 CisR cell lines were cultured in IMDM supplemented with 10 % FBS at 37 °C and 5 % CO2, while the RPE-1 cell line was cultured in a 1:1 mixture of Dulbecco's Modified Eagle Medium and Ham’s F-12 Nutrient Mixture (DMEM/F-12) at 37 °C and 5 % CO2.
(§3) SRB assay: Cells were seeded into 96-well plates at 800 cells per well/cpw (A2780), 1600 cpw (A2780 CisR) or 400 cpw (RPE-1) in cell culture medium and cultured for 48 hours followed by addition of each compound over an eight-point concentration range (each concentration in triplicate). Plates were then cultured for a further 96 hours, after which the cell culture […]
(§4) medium was removed from each well and the cells fixed with addition of 70 µL/well of 10 % (w/v) trichloroacetic acid (TCA) in distilled water followed by incubation for 30 minutes at RT.
(§5) Each plate was then washed with distilled water five times before addition of 70 µL SRB dye (0.4 % (w/v) SRB dye (ThermoFisher Scientific, USA) solubilised in 1 % (v/v) acetic acid/ dH2O) and incubat ed for 30 minutes at RT, followed by washing three times with 1 % (v/v) acetic acid and drying in a 37 °C oven overnight. Once dry, 100 μl of 10 mM Tris -base (ThermoFisher Scientific, USA) was added to each well and plates put on a microplate shaker for 10 minutes at 200 rpm to solubilize the dye. Absorbance values were then read at wavelength 490 nm on a Victor X4 multi-label plate reader (PerkinElmer Life Sciences, USA), data analysed using Microsoft Excel and graphs produced using GraphPad Prism 9.0 and the GI50 value calculated.
(§6) Solutions and compo und preparation: All solvents and starting materials were purchased from known chemical suppliers. Compound stock solutions were prepared in DMSO. Buffer […]
(§7) 500 mM. Buffer B consisted of Na2SO4 (167 mM) and NaOAc (5 mM) with a pH of 5.5 and an ionic strength of 500 mM.
(§8) Vesicle formation: Giant unilamellar Vesicles (GUVS) were prepared through the electro formation method using a Nanion VesiclePrepPro. A solution of 1,2-diphytanoyl-sn-glycero-3-phosphocholine (DPhPC) (10 mM) with 10 % cholesterol in chloroform (20 µL) was deposited onto an ITO coated glass surface (surface coated glass slide) and allowed to evaporate to create a dehydrated thin lipid film. A greased O-ring was then placed around the dehydrated lipid film to create a seal. This volume was then filled with a sucrose solution (275 µL, 200 mM) and then sealed with a second ITO coated glass slide. An AC current (3 V/5 Hz) was then applied. After 2 hrs, the voltage and frequency were reduced in steps over 30 mins to 1.6 V/1 Hz and held for 1 hr before being reduced to 0 V/0 Hz over a further 30 min […]
(§9) Patch clamp measurements: Experiments were performed using a Port-a-Patch system (Nanion Technologies) with borosilicate glass chips that contain an aperture diameter of approximately 1 µm. Buffer A (5 µL) was placed on the underside of the chip over the aperture, The chip was then placed into the port-a-patch system. Buffer A (15 µL) was then added to the top of the chip and 5 µL of the GUV stock solution added. The GUVS were the positioned over the aperture in the chip by application of negative pressure (-30 mbar).
(§10) When a GUV is positioned over the aperture in the chip, it bursts, leaving a planar bilayer as a seal. The negative pressure is then removed, leaving the planar bilayer in place over the aperture. The external buffer A was the exchanged with buffer B, through four simultaneous […]
(§11) buffer exchanges (4 x 15 µL). […]
(§12) = 30 s, to give a final experimental concentration of 0.1 – 1 mM as appropriate. The number of sweeps was set to 1000, the sweep interval to 0.00 s, sample interval to 1.00 ms and the protocol was run for a total of 5 mins. Each experiment was repeated a minimum of three time to ensure reproducibility.

[2] = system: A2780 ovarian cancer cells; experiment: GI50 determination, SRB assay; format: cell-based, human; conditions: 96 hours; read-out: Mean GI50 (μM) A2780 SRB Assays
Protocol: as §1, §2, §3, §4, §5, §6, §7, §8, §9, §10, §11, §12

[3] = system: RPE-1 cells; experiment: GI50 determination, SRB assay; format: cell-based, human; conditions: 96 hours; read-out: Mean GI50 (μM) RPE-1 SRB Assays
Protocol: as §1, §2, §3, §4, §5, §6, §7, §8, §9, §10, §11, §12

[4] = Bi-directional permeability in Caco-2 cell line; format: in vitro ADME; conditions: human; for Papp B→A at 2 h, 5 µM: Caco-2, pH 7.4, 5 µM, basolateral to apical; for recovery at 2 h, 5 µM: Caco-2, pH 7.4, after 2 hours; for Papp A→B at 2 h, 5 µM: apical to basolateral
Text: Next, to gauge the suitability of SSAs for oral dosing, 9 was subjected to a Caco-2 permeability assay which is used to both predict human intestinal permeability and investigate drug efflux, predicting in vivo compound absorption. This assay allows assessment of a compound's ability to undergo transport from the apical to the basolateral (A–B) compartments of the cell monolayer and vice versa (B–A). […] This is likely to result in poor absorption when dosed orally and therefore further development would be necessary for these agents to become suitable for oral administration. […]
The ionspray voltage was 5500V.
Bi-directional Permeability in Caco-2 Cell Line:
The bi-directional permeability in Caco-2 cell lines was determined by seeding cells onto an HTS Transwell plate. Cells were cultivated for 14-18 days in a cell culture incubator at 37°C, 5% CO2, 95% relative humidity. Cell culture medium was replaced every other day. To assess monolayer integrity the transepithelial electrical resistance (TEER) across the monolayer was measured using Millicell Epithelial volt-ohm meter prior to assay and Lucifer yellow (LY) fluorescence measurement post-assay.
Test compound was prepared in DMSO and diluted in Hank’s Balanced Saline Solution (HBSS, pH 7.4) to a final concentration of 5 µM. Compound was added to the donor compartment of the transwell plate for both apical to basolateral (A>B) and basolateral to apical (B>A) measurements, with blank HBSS being added to the receiver compartment. The transwell plate was then incubated at 37°C, 5% CO2 for 2 hours.
Samples were taken at T=0 and T=2 hours determine the concentration of initial donor sample, and the concentration of receiver and donor wells post-incubation, respectively.
The samples were quenched with solvent containing internal standard (IS). The supernatant was mixed with an appropriate volume of ultra-pure water before LC-MS/MS analysis.
Samples were analysed using a Shimadzu Nexera LC Binary Gradient LC-30AD (Shimadzu Inc, Kyoto), coupled to a Sciex 6500+ (AB Inc., Illinois). Separation of compounds was achieved using a HALO 90Å biphenyl (2.7µm,2.1x50mm) (Advanced Materials Technology, Wilmington) column at a temperature of 40°C. A binary mobile phase gradient at a flow rate of 0.7 mL/min was used. Initial LC conditions comprised of 95% solvent A (0.1% formic acid in water) and 5% solvent B (0.1% formic acid in acetonitrile). This was ramped to 95% solvent B at 0.7 minutes, held for 0.5 minutes and then immediately returned to initial conditions. Sample analysis was by electrospray ionisation combined with multiple reaction monitoring in positive ion mode. The ion spray voltage was 5500V.
In vitro Absorption, Distribution and Metabolism results
Table S1 – Result from solubility assays performed in PBS pH 7.4 for SSA 9.
Table S2 – Summary of results from Caco-2 permeability assays for SSA 9. Papp is given as […]
cm/s. A = apical; B = basolateral. Recovery = % SSA recovered from the assay after 2 hours.
ID Papp (A-B) % Recovery Papp (B-A) % Recovery Efflux Ratio
Table S3 – Summary of results from human plasma protein binding assays for SSA 9. % Bound = % of SSA bound to the plasma proteins after 6 hours incubation at 37 °C. Low % […]
= > 99 %. % Recovery = % SSA recovered from the assay after 6 hours.
ID % Bound % Recovery % Stability
Table S4 – Summary of results from mouse, rat and human microsomal stability assays for SSA 9. The in vitro half-life (t1/2) and microsomal intrinsic clearance (CLint) were calculated from the elimination rate (k, the slope of the natural log of concentration verses time curve), assuming first order kinetics, using the formulae t1/2 = 0.693/-k and CLint = 0.693/t1/2 […]. This compound would be classed as a low clearance compound in all three species. […]

[5] = Plasma protein binding, equilibrium dialysis; format: in vitro ADME, human; conditions: pH 7.4; human plasma, after 6 hours
Protocol: This allows an assessment of the free drug concentration available to distribute into the tissues and interact with the target. The extent to which a compound binds to the constituents of blood plasma can influence drug distribution. […] page 10: In vitro Absorption, Distribution and Metabolism studies General note: These studies were performed by Contract Research Organisation (CRO) Pharmaron. The methodology provided within the ESI is published within the express permission of this organisation. The percentage of a compound recovered during the […] limitations such as unintended potential non-specific binding events to experimental equipment, solubility issues, etc. Protein Binding measurements in human plasma by using equilibrium dialysis: The fraction unbound in human plasma (P-KB, Ltd People's hospital of Shandong) was measured using 96-well Equilibrium Dialysis Plate (HTDialysis LLC, Gales Ferry, CT). Human plasma containing 5 μM test compound was dialysed against dialysis buffer (PBS, pH 7.4) with initial samples taken to allow for assessment of plasma stability and recovery before the plate was incubated for 6 hours at 37°C at 5% CO2. Samples were removed at 6 hours, and all samples were matrix matched and quenched with acetonitrile containing internal standard. Samples were centrifuged at 3,220g for 30 minutes to precipitate protein and enable sampling of supernatant prior to appropriate dilution for liquid chromatography mass-spectrometry (LC-MS/MS) analysis. Samples were analysed using a Shimadzu Nexera LC Binary Gradient LC-30AD (Shimadzu Inc, Kyoto), coupled to a Sciex 6500+ (AB Inc., Illinois). Separation was achieved using a XSelect HSS T3 (2.5μm, 2.1 x 50 mm) (Waters Ltd., Wilmslow) column at a temperature of 40°C and a binary mobile phase gradient at a flow rate of 0.8 mL/min. Initial LC conditions comprised of […] was ramped to 98% B at 0.5 min, held for 0.4 min and then immediately returned to initial conditions. Sample analysis was by electrospray ionisation in combined with multiple reaction monitoring in positive ionisation mode. The ionisation voltage was +5500 V. Kinetic Solubility Determination in PBS pH 7.4: The stock solutions of test and control compounds were prepared in DMSO at 10 mM. From […] These solutions were then shaken at 1100 rpm for 2 hours at 25°C. Following incubation, the samples were filtered using a vacuum manifold. The filtrate was analysed and quantified against a standard of known concentration using liquid chromatography mass- spectrometry (LC-MS/MS). Samples were analysed using a Shimadzu Nexera LC Binary Gradient LC-30AD (Shimadzu Inc, Kyoto), coupled to a Sciex 4500 mass spectrometer (AB Inc., Illinois). Separation of […] Wilmslow) at a temperature of 40°C and a binary mobile phase gradient at a flow rate of 0.8 mL/min. […] This was ramped to 98% solvent B at 0.5 minutes, held for 0.4 minutes and then immediately returned to initial conditions. Sample analysis was by electrospray ionisation combined with multiple reaction monitoring in positive ion mode. The ionspray voltage was […]. 10

SMILES | GI50 [1] | GI50 [2] | GI50 [3] | Papp B→A at 2 h, 5 µM [4] | recovery at 2 h, 5 µM ([4]; read-out: Recovery (%) AP-BL) | recovery at 2 h, 5 µM ([4]; read-out: Recovery (%) BL-AP) | Papp A→B at 2 h, 5 µM ([4]; Caco-2, pH 7.4) | also measured
N.N.[Cl][Pt][Cl] [Cisplatin, cisplatin, reference compound] | 10.8 µM | 1.09 µM | 6.25 µM |  |  |  |  | 
C[C@H]1O[C@@H](O[C@H]2[C@@H](O)C[C@H](O[C@H]3[C@@H](O)C[C@H](O[C@H]4CC[C@@]5(C)[C@H](CC[C@@H]6[C@@H]5C[C@@H](O)[C@]5(C)[C@@H](C7=CC(=O)OC7)CC[C@]65O)C4)O[C@@H]3C)O[C@@H]2C)C[C@H](O)[C@@H]1O [Digoxin] |  |  |  | 18.7 ×10⁻⁶ cm/s | 95.9% | 99.2% | 0.42 ×10⁻⁶ cm/s | efflux ratio at 2 h, 5 µM ([4]; Caco-2, pH 7.4): 45.6
CC(=O)N1CCN(c2ccc(OCC3COC(Cn4ccnc4)(c4ccc(Cl)cc4Cl)O3)cc2)CC1 (centres unmarked) [Ketoconazole, reference compound] |  |  |  |  |  |  |  | recovery at 6 h, 5 µM [5]: 96.6%
COCCc1ccc(OCC(O)CNC(C)C)cc1 (centres unmarked) [Metoprolol] |  |  |  | 26.4 ×10⁻⁶ cm/s | 108% | 99% | 28.4 ×10⁻⁶ cm/s | efflux ratio at 2 h, 5 µM ([4]; Caco-2, pH 7.4, Caco-2): 0.93
CCCC[N+](CCCC)(CCCC)CCCC [TBACl, reference compound] | 219 µM | 114 µM | 532 µM |  |  |  |  | 
